Assay results from patent US11241434B2, “Compositions and methods for improving cognition in a subject” (Yale University, priority 2013, dated 2022).

Legend:
[1] = Dog toxicology studies (6 month and nine-month); format: in vivo
Text: The body weight of dogs treated with different doses of saracatinib was plotted as a function of time. There were a […] (4 female and 4 male in each group), but a single sex (male) is shown here because the weight range is different between sexes. The trend for female dogs is similar but not shown. Values are mean±sem.

Fyn (phospho-Src pY416) = assay: pY416 and Fyn immunoblot of hippocampus of WT mice fed AZD0530 diet; format: in vivo, mouse; settings: diet pellets 5 mg/kg/d, 9 months, vs Vehicle
Text: FIGS. 17A-17C illustrate reduced Fyn activation in mice fed AZD0530-containing food. FIG. 17A: Representative blots using anti-pY416, Fyn, and 8-actin antibodies of the RIPA-soluble fraction of the hippocampus of WT mice treated with Vehicle or AZD0530 for 9 months. FIG. 17B: Quantification of pY416-immunoreactive bands from the immunoblot from FIG. 17A by densitometric analysis. The bands indicated by an arrow in FIG. 17A were quantified. The band intensity was normalized to that of 8-actin and then normalized to the mean of the Vehicle-treated WT group. Data are represented as mean±SEM. n=6/group. *p<0.05; t-test. FIG. 17C: Quantification of Fyn-immunoreactive bands from the immunoblot in FIG. 17A by densitometric analysis. The band intensity was normalized to that of β-actin and then normalized to the mean of the Vehicle-treated WT group. Data are represented as mean±SEM. n=6/group. t-test.
To generate chow containing chow for chronic dosing, the compound was incorporated into purified diet pellets by Research Diets, Inc. by dissolving the compound in a solution of 0.5% w/v Hydroxypropylmethylcellulose/0.1% w/v polysorbate 80 at 1.429 mg/ml. […] The dosage of the drug in the food was calculated to take into account the average amount of food eaten by a mouse in a single day per kg of weight and adjusted to be equivalent to ingesting 5 mg/kg per day. […]

[2] = system: APPswe/PS1ΔE9 transgenic mice; assay: Morris water maze in AD transgenic mice
Description: Spatial learning is plotted as latency to find a hidden platform in a Morris water maze at age 11-12 months. […] Mean±SEM for the indicated numbers of mice per genotype/treatment group.
Memory performance during a 60 sec probe trial, 24 hr after learning, where time spent in the target quadrant was measured. Random chance is 15 sec. Mean±SEM for n=9-14 in each group.
The dosing was on a twice a day schedule by oral gavage and control groups received vehicle. The identity of the active versus vehicle groups and the transgene status was unknown to the researchers handling the mice and collecting the behavioral data. […] The data from the two cohorts were pooled. Different tests were performed at 1-3 weeks (early) or 4-6 weeks (late) time points. Mice were tested in the Morris water maze at both ages, and also in Novel Object Recognition tests at the later time points. After memory testing was complete, the animals were sacrificed without ceasing their drug regimen for histological analysis.
After the learning trials, the mice were tested the subsequent day in a memory test, the 60 second probe trial with the hidden platform removed (FIG. 4). Random chance results in 15 sec occupancy in each quadrant.

CN1CCN(CCOc2cc(OC3CCOCC3)c3c(Nc4c(Cl)ccc5c4OCO5)ncnc3c2)CC1 [saracatinib, N-(5-chloro-benzo[d][1,3]dioxol-4-yl)-7-(2-(4-methylpiperazin-1-yl)ethoxy)-5-(tetrahydro-2H-pyran-4-yloxy)quinazolin-4-amine]
body weight ([1]; nine-month study): continued weight gain | adverse symptoms ([1]; nine-month study, 0.5, 2 and 5 mg/kg/d, at 8.75 months): no obvious adverse symptoms | total Fyn levels in hippocampus (Fyn (phospho-Src pY416)): no difference | latency to hidden platform (learning trials) ([2]; APPswe/PS1ΔE9 mice, 5 mg/kg/d b.i.d. oral gavage, 4-5 weeks): eliminated the transgenic deficit | probe trial, preference for target quadrant ([2]; APPswe/PS1ΔE9 mice, 5 mg/kg/d, 5 weeks): same strong preference for the target quadrant as did WT mice | learning and memory tests ([2]; shorter treatment duration or lesser doses): did not have significant effects | probe trial, time in target quadrant ([2]; wild type mice with or without 5 weeks saracatinib, 60 second trial, chance 15 sec): ~30 s | latency to hidden platform (learning trials) ([2]; wild type mice, 5 mg/kg/d): not altered
